Molecular target: T1, Mineralocorticoid Receptor of the Rats' Kidney (Rattus norvegicus, UniProt P22199)
T1 construct: The kidneys were then removed, decapsulated and homogenized at 0° C; from tissue; host or cells: kidney cytosol (105,000 g supernatant) of adrenalectomised male Sprague-Dawley rats
T1 sequence (P22199 1-981): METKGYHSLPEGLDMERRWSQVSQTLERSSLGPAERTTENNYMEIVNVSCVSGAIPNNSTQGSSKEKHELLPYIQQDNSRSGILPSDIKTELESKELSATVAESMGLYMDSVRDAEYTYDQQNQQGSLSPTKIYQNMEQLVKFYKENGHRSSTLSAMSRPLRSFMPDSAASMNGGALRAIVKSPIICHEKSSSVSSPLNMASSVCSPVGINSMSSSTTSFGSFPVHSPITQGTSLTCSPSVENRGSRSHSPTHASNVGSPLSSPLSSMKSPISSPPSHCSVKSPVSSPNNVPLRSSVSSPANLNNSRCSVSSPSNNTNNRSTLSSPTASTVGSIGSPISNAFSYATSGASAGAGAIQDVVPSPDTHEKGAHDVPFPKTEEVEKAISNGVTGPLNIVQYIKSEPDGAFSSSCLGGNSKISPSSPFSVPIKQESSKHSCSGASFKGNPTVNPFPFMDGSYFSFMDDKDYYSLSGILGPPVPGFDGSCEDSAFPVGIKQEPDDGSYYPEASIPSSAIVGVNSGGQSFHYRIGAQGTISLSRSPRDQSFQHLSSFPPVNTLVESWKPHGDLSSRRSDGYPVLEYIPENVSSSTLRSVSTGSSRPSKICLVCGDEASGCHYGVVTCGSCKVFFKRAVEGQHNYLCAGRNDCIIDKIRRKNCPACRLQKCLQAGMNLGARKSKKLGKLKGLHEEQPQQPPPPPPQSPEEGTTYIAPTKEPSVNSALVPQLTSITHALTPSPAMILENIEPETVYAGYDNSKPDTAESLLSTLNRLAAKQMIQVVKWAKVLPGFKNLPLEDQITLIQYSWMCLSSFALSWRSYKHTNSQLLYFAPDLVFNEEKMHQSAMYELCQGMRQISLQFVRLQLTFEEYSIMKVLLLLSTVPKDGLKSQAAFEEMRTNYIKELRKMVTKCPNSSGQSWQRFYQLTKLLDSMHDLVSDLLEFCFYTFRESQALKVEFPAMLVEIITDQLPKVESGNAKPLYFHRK
Assay: Relative affinity of the bond, mineralocorticoid receptor (tritiated aldosterone displacement)
Format: binding
Details: RAB=100(CH)/(CX); for Relative affinity of the bond (RAB), Mineralocorticoid, 1 H: incubation 1 H at 0° C.; for Relative affinity of the bond (RAB), Mineralocorticoid, 24 H: incubation 24 H at 0° C.
Method: Mineralocorticoid Receptor of the Rats' Kidney:
Male Sprague-Dawley EOPS rats weighing 140 to 160 g were subjected to supraenalectomy 4 to 8 days earlier and were sacrificed and their kidneys were perfused in situ with 50 ml of a 10 mM Tris, 0.25 M saccharose, HCl buffer pH 7.4. The kidneys were then removed, decapsulated and homogenized at 0° C. with the aid of a Potter teflon-glass (1 g of tissue for 3 ml of buffer). The homogenate was centrifuged for 10 minutes at […] and 0° C. and then to eliminate the fixation of the tritiated aldosterone upon the glucocorticoid receptor, 11β-,17β-dihydroxy-21-methyl-Δ^1,4,6-pregnatrien-20-yn-3-one which was fixed uniquely upon the glucocorticoid receptor was added to the supernatant at a final concentration of 10^−6 M. This supernatant was ultracentrifuged at 105,000 g for 60 minutes at 0° C. and aliquots of the supernatant thus obtained were incubated at 0° C. with a constant concentration (T) of tritiated aldosterone in the presence of increasing concentrations ([…]) of the cold aldosterone or the cold product to be studied. After an incubation time (t), the concentration of bound tritiated aldosterone (B) was measured by the adsorption on dextran carbon technique.
Calculation of the Relative Affinty of the Bond
The calculation of the Relative Affinity of the Bond (RAB) was identical for all the receptors. The following 2 curves were traced; the percentage of the bound tritiated hormone [formula]
was a function of the logarithm of the concentration of the cold reference hormone and [formula]
as a function of the logarithm of the concentration of the cold product tested.
One determined the straight line of the equation [formula]
The intersections of the straight line I50 and of the curves make it possible to evaluate the concentrations of the cold reference hormone (CH) and of the tested cold product (CX) which inhibit to an extend of 50% the binding of the tritiated hormone upon the receptor. The relative affinity of the bond (RAB) of the tested product is determined by the equation

| Relative affinity of the bond (RAB), Mineralocorticoid, 1 H | Relative affinity of the bond (RAB), Mineralocorticoid, 24 H | Compound |
| --- | --- | --- |
| 0.19 | 0.00 | CCCCN(C)C(=O)CCCCCCCCCC[C@H]1C[C@]2(C)[C@@H](O)CC[C@H]2[C@@H]2CCc3cc(O)ccc3[C@@H]12 [Example 13, N-Butyl-3,17β-Dihydroxy-N-Methyl-11β-Δ^1,3,5(10)-Estratriene-Undecanamide] |
| 0 | 0 | CC(C)N(C)C(=O)CCCCCCCCCC[C@H]1C[C@]2(C)[C@@H](O)CC[C@H]2[C@@H]2CCc3cc(O)ccc3[C@@H]12 [Example 16, 3,17β-dihydroxy-N-methyl-N-isopropyl-11β-Δ^1,3,5(10)-estratriene undecanamide] |
| 2 | 0.5 | CN(Cc1ccccc1)C(=O)CCCCCCCCCC[C@H]1C[C@]2(C)[C@@H](O)CC[C@H]2[C@@H]2CCC3=CC(=O)CCC3=C12 [Example 17, N-benzyl-17β-hydroxy-N-methyl-3-oxo-11β-Δ^4,9-estradiene undecanamide] |
| 0 | 0 | CC#C[C@]1(O)CC[C@H]2[C@@H]3CCC4=CC(=O)CCC4=C3[C@@H](CCCCCCCCCCC(=O)NCCCC)C[C@@]21C [Example 22, N-butyl-17β-hydroxy-3-oxo-17α-(1-propynyl)-11β-Δ^4,9-estradiene undecanamide] |
| 0 | 0 | CCCCN(C)C(=O)CCCCCCCCCCC[C@H]1C[C@]2(C)[C@@H](O)CC[C@H]2[C@@H]2CCc3cc(O)ccc3[C@@H]12 [Example 24, N-butyl-3,17β-dihydroxy-N-methyl-11β-Δ^1,3,5(10)-estratriene dodecanamide] |
| 0.4 | 0.5 | N-butyl-3,17β-dihydroxy-N-methyl-19-nor-11β-Δ^1,3,5(10)-pregnatrien-20-yn undecanamide [Example 21] |

| Compound | Relative affinity of the bond (RAB), Mineralocorticoid, 1 H | Relative affinity of the bond (RAB), Mineralocorticoid, 24 H |
| --- | --- | --- |
| CN(C)CCN(C)C(=O)CCCCCCCCCC[C@H]1C[C@]2(C)[C@@H](O)CC[C@H]2[C@@H]2CCC3=CC(=O)CCC3=C12 [Example 19, N-[2-(dimethylamino)-ethyl]-17β-hydroxy-N-methyl-3-oxo-11β-Δ^4,9-estradiene undecanamide] | 0.7 | 0.1 |
